Measured values reported in patent US20240139236A1, “COPPER HISTIDINATE COMPOSITIONS AND USES THEREOF” (Cyprium Therapeutics, Inc., priority 2021, published 2024).

Tests used:
[1] = system: classic Menkes disease patients; settings: cited from earlier work
Menkes disease subjects = assay: Long term follow up of Menkes disease patients treated with copper histidinate (survival); assay type: in vivo, human; settings: early treatment vs untreated historical controls
Description: During the study patients were administered does of copper histidinate as follows: 1450 μg subcutaneous BID in infants up to 12 months of age, and 1450 μg subcutaneous QD for infants and children older than 12 months.
This study was designed as a long term follow up on patients previously identified and/or enrolled in previous studies for the treatment of Menkes disease with copper histidinate and untreated patients to determine survival, neurological development, quality of life status and adverse events. This study followed the patients from the previous examples for long term follow up.
Patients previously enrolled in clinical trials for the treatment of Menkes disease with copper histidinate were assessed for survival status, neurological development status and quality of life. No drug was be administered during this study.

[2] = system: classic Menkes disease patients; assay: Subcutaneous copper histidinate treatment of Menkes patients (serum copper, renal safety monitoring); assay type: in vivo, human; settings: 1450 μg SC BID younger than 12 months, QD older than 12 months
Excerpt: The purpose of this study was to allow currently enrolled participants to complete a three-year course of subcutaneous copper histidinate treatment under a previous protocol. It was hypothesized that subcutaneous injections of this drug will raise serum copper levels and ceruloplasmin levels in enrolled participants, improve neurodevelopmental and neurological outcomes, and reduce mortality compared to untreated affected subjects. The broad overall hypothesis of this treatment study is that subcutaneous copper histidinate injections will normalize circulating copper levels and provide health benefits to individuals with copper deficiency due to genetic abnormalities such as classic Menkes disease or which is unexplained. The trial represents an open-label design in which all enrolled subjects receive subcutaneous injections of copper histidinate. Immediate potential benefits of Copper Histidinate treatment in classic Menkes disease include protection against seizure activity and accrual of neurodevelopmental skills in an age-appropriate fashion. Long-term potential benefits include enhanced lifespan and quality of life, as noted in other subjects with classic Menkes disease treated with Copper Histidinate. […]

In the case of `N[C@@H](Cc1cnc[nH]1)C(=O)[O-].N[C@@H](Cc1cnc[nH]1)C(=O)[O-].[Cu+2]` [copper histidinate, (2S)-2-amino-3-(1H-imidazol-5-yl) propanoic acid, Copper], the “renal tubular injury caused by copper histidinate” value [1] is listed as “reversible”, the “reduction in the risk of death” value (Menkes disease subjects) is listed as roughly 80% and the “hazard ratio (risk of death)” value (Menkes disease subjects; p<0.00001) is listed as 0.21. For the same molecule, the “serum copper levels under the standard dosing regimen” value [2] was “maintains serum copper levels in the normal range”.
